Assay results taken from PubChem BioAssay AID1963831 (Molecular Pharmacology Branch, DTP, NCI, 2024).
pIC50: −log10 of the molar value.

System: 889142-216-R-J1-PDC complex spheroid viability
Assay: Anticancer human tumor 889142-216-R-J1-PDC patient-derived bladder carcinoma cell line growth inhibition [POLQ]
Conditions: for pIC50: curve of first compound; for viability, T/C: stronger effect = lower value; active = viability on the fitted dose curve at most 10% of control; inactive = the rest
Outline: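 Patient-derived tumour cells were co-cultured with HUVEC and mesenchymal stem cells as multicellular spheroids at 37 °C. They were treated with POLQ inhibitors (novobiocin, ART-558, RP6685) alone or combined with other agents. Top concentrations were at or near clinical Cmax (otherwise 10 microM; SN-38 at 1 microM), decreasing in half-log steps.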

[1] = second compound 0.0316 µM, first compound 0.0316 µM
[2] = second compound 0.0316 µM, first compound 0.1 µM
[3] = second compound 0.0316 µM, first compound 0.316 µM
[4] = second compound 0.0316 µM, first compound 1 µM
[5] = second compound 0.0316 µM, first compound 3.16 µM
[6] = second compound 0.0316 µM, first compound 10 µM
[7] = second compound 0.1 µM, first compound 0.0316 µM
[8] = second compound 0.1 µM, first compound 0.1 µM
[9] = second compound 0.1 µM, first compound 0.316 µM
[10] = second compound 0.1 µM, first compound 1 µM
[11] = second compound 0.1 µM, first compound 3.16 µM
[12] = second compound 0.1 µM, first compound 10 µM
[13] = second compound 0.316 µM, first compound 0.0316 µM
[14] = second compound 0.316 µM, first compound 0.1 µM
[15] = second compound 0.316 µM, first compound 0.316 µM
[16] = second compound 0.316 µM, first compound 1 µM
[17] = second compound 0.316 µM, first compound 3.16 µM
[18] = second compound 0.316 µM, first compound 10 µM
[19] = second compound 1 µM, first compound 0.0316 µM
[20] = second compound 1 µM, first compound 0.1 µM
[21] = second compound 1 µM, first compound 0.316 µM
[22] = second compound 1 µM, first compound 1 µM
[23] = second compound 1 µM, first compound 3.16 µM
[24] = second compound 1 µM, first compound 10 µM
[25] = second compound 3.16 µM, first compound 0.0316 µM
[26] = second compound 3.16 µM, first compound 0.1 µM
[27] = second compound 3.16 µM, first compound 0.316 µM
[28] = second compound 3.16 µM, first compound 1 µM
[29] = second compound 3.16 µM, first compound 3.16 µM
[30] = second compound 3.16 µM, first compound 10 µM
[31] = second compound 10 µM, first compound 0.0316 µM
[32] = second compound 10 µM, first compound 0.1 µM
[33] = second compound 10 µM, first compound 0.316 µM
[34] = second compound 10 µM, first compound 1 µM
[35] = second compound 10 µM, first compound 3.16 µM
[36] = second compound 10 µM, first compound 10 µM
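Also: spheroids exposed to compounds for seven days.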
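For viability, T/C in this document: 100% = DMSO vehicle control viability.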

C=CC(=O)N1CCN(c2nc(=O)n(-c3c(C)ccnc3C(C)C)c3nc(-c4c(O)cccc4F)c(F)cc23)C(C)C1 (stereo unspecified) + COC1C(OC(N)=O)C(O)C(Oc2ccc3c(O)c(NC(=O)c4ccc(O)c(CC=C(C)C)c4)c(=O)oc3c2C)OC1(C)C
inactive: viability, T/C [1] 111% | viability, T/C [2] 114% | viability, T/C [3] 121% | viability, T/C [4] 111% | viability, T/C [5] 131% | viability, T/C [6] 88.7% | viability, T/C [7] 113% | viability, T/C [8] 116% | viability, T/C [9] 116% | viability, T/C [10] 146% | viability, T/C [11] 127% | viability, T/C [12] 82.4% | viability, T/C [13] 111% | viability, T/C [14] 133% | viability, T/C [15] 103% | viability, T/C [16] 125% | viability, T/C [17] 135% | viability, T/C [18] 78% | viability, T/C [19] 97.3% | viability, T/C [20] 123% | viability, T/C [21] 126% | viability, T/C [22] 109% | viability, T/C [23] 112% | viability, T/C [24] 103% | viability, T/C [25] 98.3% | viability, T/C [26] 124% | viability, T/C [27] 115% | viability, T/C [28] 132% | viability, T/C [29] 123% | viability, T/C [30] 82.7% | viability, T/C [31] 115% | viability, T/C [32] 102% | viability, T/C [33] 112% | viability, T/C [34] 113% | viability, T/C [35] 145% | viability, T/C [36] 85.3%
< 5.00: pIC50 (second compound 0.0316 µM) | pIC50 (second compound 0.1 µM) | pIC50 (second compound 0.316 µM) | pIC50 (second compound 1 µM) | pIC50 (second compound 3.16 µM) | pIC50 (second compound 10 µM)

COc1cc2cc(C(=O)CCC(=O)O)sc2cc1OC + COC1C(OC(N)=O)C(O)C(Oc2ccc3c(O)c(NC(=O)c4ccc(O)c(CC=C(C)C)c4)c(=O)oc3c2C)OC1(C)C
< 5.00: pIC50 (second compound 0.0316 µM) | pIC50 (second compound 0.1 µM) | pIC50 (second compound 0.316 µM) | pIC50 (second compound 1 µM) | pIC50 (second compound 3.16 µM) | pIC50 (second compound 10 µM)
inactive: viability, T/C [1] 95.1% | viability, T/C [2] 93% | viability, T/C [3] 82.4% | viability, T/C [4] 114% | viability, T/C [5] 109% | viability, T/C [6] 70% | viability, T/C [7] 103% | viability, T/C [8] 106% | viability, T/C [9] 102% | viability, T/C [10] 96.9% | viability, T/C [11] 92.5% | viability, T/C [12] 81.1% | viability, T/C [13] 118% | viability, T/C [14] 120% | viability, T/C [15] 116% | viability, T/C [16] 90.6% | viability, T/C [17] 110% | viability, T/C [18] 83.6% | viability, T/C [19] 113% | viability, T/C [20] 106% | viability, T/C [21] 121% | viability, T/C [22] 113% | viability, T/C [23] 118% | viability, T/C [24] 83.9% | viability, T/C [25] 91.2% | viability, T/C [26] 113% | viability, T/C [27] 103% | viability, T/C [28] 102% | viability, T/C [29] 111% | viability, T/C [30] 101% | viability, T/C [31] 103% | viability, T/C [32] 93.2% | viability, T/C [33] 111% | viability, T/C [34] 92.8% | viability, T/C [35] 103% | viability, T/C [36] 88.2%

O=c1[nH]cc(F)c(=O)[nH]1 + Nc1ccc(C#CCN(C(=O)Cc2ncc(C(F)(F)F)cc2C(F)(F)F)c2ccc(F)cc2)nn1
inactive: viability, T/C [1] 91.6% | viability, T/C [2] 86.2% | viability, T/C [3] 90% | viability, T/C [4] 80% | viability, T/C [5] 81.1% | viability, T/C [6] 60.7% | viability, T/C [7] 91.1% | viability, T/C [8] 78.8% | viability, T/C [9] 58.8% | viability, T/C [10] 75.1% | viability, T/C [11] 67.1% | viability, T/C [12] 69.1% | viability, T/C [13] 108% | viability, T/C [14] 73.9% | viability, T/C [15] 68% | viability, T/C [16] 82.7% | viability, T/C [17] 68.3% | viability, T/C [18] 61.7% | viability, T/C [19] 83.4% | viability, T/C [20] 101% | viability, T/C [21] 79.8% | viability, T/C [22] 66.6% | viability, T/C [23] 61.9% | viability, T/C [24] 60.1% | viability, T/C [25] 82.7% | viability, T/C [26] 89.2% | viability, T/C [27] 83.3% | viability, T/C [28] 67.4% | viability, T/C [29] 72.4% | viability, T/C [30] 73.8% | viability, T/C [31] 109% | viability, T/C [32] 103% | viability, T/C [33] 83.2% | viability, T/C [34] 78.4% | viability, T/C [35] 68.6% | viability, T/C [36] 67.2%
< 5.00: pIC50 (second compound 0.0316 µM) | pIC50 (second compound 0.1 µM) | pIC50 (second compound 0.316 µM) | pIC50 (second compound 1 µM) | pIC50 (second compound 3.16 µM) | pIC50 (second compound 10 µM)
